PMC5218480 (PLoS ONE, 2017)

Test system: MV-4-11 cells
Assay: Gene expression microarray analysis (Affymetrix PrimeView) and GSEA
Format: cell-based, human
Parameters: RFU PODN (11730768_x_at) / Fold change /veh PODN (11730768_x_at) / RFU LINC00158 (11744669_a_at) / Fold change /veh LINC00158 (11744669_a_at) / RFU DUSP10 (11751237_a_at) / Fold change /veh DUSP10 (11751237_a_at) / RFU ID3 (11757404_x_at) / Fold change /veh ID3 (11757404_x_at) / RFU PLEKHG5 (11737974_s_at) / Fold change /veh PLEKHG5 (11737974_s_at) / RFU LRRC4B (11730491_at) / Fold change /veh LRRC4B (11730491_at) / RFU GIMAP4 (11747438_a_at) / Fold change /veh GIMAP4 (11747438_a_at) / RFU KRT8 (11758183_x_at) / Fold change /veh KRT8 (11758183_x_at) / RFU CNN1 (11734310_a_at) / Fold change /veh CNN1 (11734310_a_at) / RFU VPS37D (11726825_at) / Fold change /veh VPS37D (11726825_at) / RFU C10orf10 (11716522_x_at) / Fold change /veh C10orf10 (11716522_x_at) / RFU KIR2DL2 /// KIR2DL4 /// KIR2DL5A /// KIR2DL5B /// KIR2DS1 /// KIR2DS2 /// KIR2DS3 /// KIR2DS4 /// KIR3DL3 /// KIR3DL3 /// KIR3DS1 (11738374_at) / Fold change /veh KIR2DL2 /// KIR2DL4 /// KIR2DL5A /// KIR2DL5B /// KIR2DS1 /// KIR2DS2 /// KIR2DS3 /// KIR2DS4 /// KIR3DL3 /// KIR3DL3 /// KIR3DS1 (11738374_at) / RFU C1QL1 (11718748_at) / Fold change /veh C1QL1 (11718748_at) / RFU TMPRSS4 (11747572_a_at) / Fold change /veh TMPRSS4 (11747572_a_at) / RFU HAMP (11756126_x_at) / Fold change /veh HAMP (11756126_x_at) / RFU RNFT2 (11725882_a_at) / Fold change /veh RNFT2 (11725882_a_at) / RFU NR4A2 (11747474_a_at) / Fold change /veh NR4A2 (11747474_a_at) / RFU ABCC12 (11746883_a_at) / Fold change /veh ABCC12 (11746883_a_at) / RFU TMEM136 (11760407_x_at) / Fold change /veh TMEM136 (11760407_x_at) / RFU CLDN22 /// WWC2 (11732394_at) / Fold change /veh CLDN22 /// WWC2 (11732394_at) / RFU HLA-DPB1 (11760878_x_at) / Fold change /veh HLA-DPB1 (11760878_x_at) / RFU SPINT1 (11716480_a_at) / Fold change /veh SPINT1 (11716480_a_at) / RFU GAP43 (11754022_s_at) / Fold change /veh GAP43 (11754022_s_at) / RFU A4GNT (11735810_at) / Fold change /veh A4GNT (11735810_at) / RFU PRB3 (11715151_x_at) / Fold change /veh PRB3 (11715151_x_at) / RFU TUBB4B (11761932_at) / Fold change /veh TUBB4B (11761932_at) / RFU CAPN14 (11732068_a_at) / Fold change /veh CAPN14 (11732068_a_at) / RFU TMCC2 (11721928_a_at) / Fold change /veh TMCC2 (11721928_a_at) / RFU IRGQ (11745062_a_at) / Fold change /veh IRGQ (11745062_a_at) / RFU FAM174B (11720279_a_at) / Fold change /veh FAM174B (11720279_a_at) / RFU TMPRSS4 (11748680_a_at) / Fold change /veh TMPRSS4 (11748680_a_at) / RFU FAM212B (11763350_a_at) / Fold change /veh FAM212B (11763350_a_at) / RFU PLEKHG5 (11743358_a_at) / Fold change /veh PLEKHG5 (11743358_a_at) / RFU ZSCAN30 (11745921_a_at) / Fold change /veh ZSCAN30 (11745921_a_at) / RFU CMKLR1 (11741424_a_at) / Fold change /veh CMKLR1 (11741424_a_at) / RFU LOC101060620 /// MAPK8IP1 (11723275_at) / Fold change /veh LOC101060620 /// MAPK8IP1 (11723275_at) / RFU SPTSSB (11747773_x_at) / Fold change /veh SPTSSB (11747773_x_at) / RFU PRSS12 (11739890_at) / Fold change /veh PRSS12 (11739890_at) / RFU BIN1 (11741810_x_at) / Fold change /veh BIN1 (11741810_x_at) / RFU WNT11 (11732464_a_at) / Fold change /veh WNT11 (11732464_a_at) / RFU C10orf10 (11716521_a_at) / Fold change /veh C10orf10 (11716521_a_at) / RFU C5orf56 (11738089_at) / Fold change /veh C5orf56 (11738089_at) / RFU CYB561 (11721691_x_at) / Fold change /veh CYB561 (11721691_x_at) / RFU ANKRD19P (11752326_a_at) / Fold change /veh ANKRD19P (11752326_a_at) / RFU OR2T12 /// OR2T33 /// OR2T8 (11738714_s_at) / Fold change /veh OR2T12 /// OR2T33 /// OR2T8 (11738714_s_at) / RFU VCAN (11748164_a_at) / Fold change /veh VCAN (11748164_a_at) / RFU JSRP1 (11732532_at) / Fold change /veh JSRP1 (11732532_at) / RFU KRTAP10-11 (11738290_x_at) / Fold change /veh KRTAP10-11 (11738290_x_at) / RFU MYO3A (11730013_a_at) / Fold change /veh MYO3A (11730013_a_at) / RFU EBF3 (11725865_a_at) / Fold change /veh EBF3 (11725865_a_at) / RFU CAMK2N1 (11719241_x_at) / Fold change /veh CAMK2N1 (11719241_x_at) / RFU C5orf56 (11738088_a_at) / Fold change /veh C5orf56 (11738088_a_at) / RFU OLFML3 (11715873_a_at) / Fold change /veh OLFML3 (11715873_a_at) / RFU LOC100653217 /// NTM (11731650_a_at) / Fold change /veh LOC100653217 /// NTM (11731650_a_at) / RFU MAPK11 (11762145_a_at) / Fold change /veh MAPK11 (11762145_a_at) / RFU FIZ1 (11724087_x_at) / Fold change /veh FIZ1 (11724087_x_at) / RFU OASL (11726364_x_at) / Fold change /veh OASL (11726364_x_at) / RFU SOX15 (11748057_x_at) / Fold change /veh SOX15 (11748057_x_at) / RFU CD79A (11719716_a_at) / Fold change /veh CD79A (11719716_a_at) / RFU HIST1H1D (11736915_at) / Fold change /veh HIST1H1D (11736915_at) / RFU CASKIN2 (11723855_a_at) / Fold change /veh CASKIN2 (11723855_a_at) / RFU LOC730098 (11760151_x_at) / Fold change /veh LOC730098 (11760151_x_at) / RFU OR4N2 (11742367_at) / Fold change /veh OR4N2 (11742367_at) / RFU PRRT2 (11749266_a_at) / Fold change /veh PRRT2 (11749266_a_at) / RFU SNX32 (11753110_a_at) / Fold change /veh SNX32 (11753110_a_at) / RFU CDHR5 (11726645_a_at) / Fold change /veh CDHR5 (11726645_a_at) / RFU RCAN1 (11760418_a_at) / Fold change /veh RCAN1 (11760418_a_at) / RFU FAM167A (11723789_a_at) / Fold change /veh FAM167A (11723789_a_at) / RFU FAM26E (11764081_at) / Fold change /veh FAM26E (11764081_at) / RFU ISYNA1 (11749810_s_at) / Fold change /veh ISYNA1 (11749810_s_at) / RFU ACY1 (11761880_at) / Fold change /veh ACY1 (11761880_at) / RFU 11764098_at / Fold change /veh 11764098_at / RFU SAMD14 (11745864_x_at) / Fold change /veh SAMD14 (11745864_x_at) / RFU NPB (11741838_a_at) / Fold change /veh NPB (11741838_a_at) / RFU TMPRSS6 (11731388_a_at) / Fold change /veh TMPRSS6 (11731388_a_at) / RFU KRTAP10-2 (11738614_at) / Fold change /veh KRTAP10-2 (11738614_at) / RFU ARHGAP8 /// PRR5-ARHGAP8 (11727945_x_at) / Fold change /veh ARHGAP8 /// PRR5-ARHGAP8 (11727945_x_at) / RFU KRTAP5-7 /// NADSYN1 (11734609_at) / Fold change /veh KRTAP5-7 /// NADSYN1 (11734609_at) / RFU RASL12 (11751679_a_at) / Fold change /veh RASL12 (11751679_a_at) / RFU CDKN2B (11736163_a_at) / Fold change /veh CDKN2B (11736163_a_at) / RFU PRF1 (11729649_at) / Fold change /veh PRF1 (11729649_at) / RFU, ZNF638 /// ZNF638-IT1 / Fold change vs veh, ZNF638 /// ZNF638-IT1 / RFU, PANK3 / Fold change vs veh, PANK3 / RFU, SH3YL1 / Fold change vs veh, SH3YL1 / RFU, ZEB2 / Fold change vs veh, ZEB2 / RFU, NRIP1 / Fold change vs veh, NRIP1 / RFU, PTTG1IP / Fold change vs veh, PTTG1IP / RFU, CAPN2 / Fold change vs veh, CAPN2 / RFU, MED14 / Fold change vs veh, MED14 / RFU, SNORA58 / Fold change vs veh, SNORA58 / RFU, C1orf63 / Fold change vs veh, C1orf63 / RFU, LRRFIP1 / Fold change vs veh, LRRFIP1 / RFU, NDUFAF7 / Fold change vs veh, NDUFAF7 / RFU, SLC12A2 / Fold change vs veh, SLC12A2 / RFU, IBTK / Fold change vs veh, IBTK / RFU, ESF1 / Fold change vs veh, ESF1 / Fold change vs veh, TMEM50B / RFU, TAOK1 / Fold change vs veh, TAOK1 / RFU, ACBD3 / Fold change vs veh, ACBD3 / RFU, TMA16 / Fold change vs veh, TMA16 / RFU, RWDD3 / Fold change vs veh, RWDD3 / RFU, BCAT1 / Fold change vs veh, BCAT1 / RFU, EDEM3 / Fold change vs veh, EDEM3 / RFU, TMEM33 / Fold change vs veh, TMEM33 / RFU, WDR75 / Fold change vs veh, WDR75 / RFU, AHCTF1 / Fold change vs veh, AHCTF1 / RFU, TFRC / Fold change vs veh, TFRC / RFU, ZDHHC17 / Fold change vs veh, ZDHHC17 / RFU, NOM1 / Fold change vs veh, NOM1 / RFU, ARL8B / Fold change vs veh, ARL8B / RFU, ZBTB11 / Fold change vs veh, ZBTB11 / RFU, TAMM41 / Fold change vs veh, TAMM41 / RFU, KIAA1704 /// LOC100996395 / Fold change vs veh, KIAA1704 /// LOC100996395 / RFU, ING1 / Fold change vs veh, ING1 / RFU, TRMT61B / Fold change vs veh, TRMT61B / RFU, FUBP3 / Fold change vs veh, FUBP3 / RFU, TP53 / Fold change vs veh, TP53 / RFU, TNKS2 / Fold change vs veh, TNKS2 / RFU, ZFP14 / Fold change vs veh, ZFP14 / RFU, ACTR2 / Fold change vs veh, ACTR2 / RFU, PPP3R1 / Fold change vs veh, PPP3R1 / RFU, PIK3R1 / Fold change vs veh, PIK3R1 / RFU, HNRNPA1 / Fold change vs veh, HNRNPA1 / RFU, RNF170 / Fold change vs veh, RNF170 / RFU, ZNF28 / Fold change vs veh, ZNF28 / RFU, RNGTT / Fold change vs veh, RNGTT / RFU, OGT / Fold change vs veh, OGT / RFU, BRD1 / Fold change vs veh, BRD1 / RFU, MARS / Fold change vs veh, MARS / RFU, ZNF655 / Fold change vs veh, ZNF655 / RFU, FAHD1 / Fold change vs veh, FAHD1 / RFU, BDP1 / Fold change vs veh, BDP1 / RFU, LRRCC1 / Fold change vs veh, LRRCC1 / RFU, ARID1A / Fold change vs veh, ARID1A / RFU, ZNF146 / Fold change vs veh, ZNF146 / RFU, ZNF330 / Fold change vs veh, ZNF330 / RFU, GPN3 / Fold change vs veh, GPN3 / RFU, C9orf123 / Fold change vs veh, C9orf123 / RFU, N4BP2L2 / Fold change vs veh, N4BP2L2 / RFU, ARFIP1 / Fold change vs veh, ARFIP1 / RFU, FAM179B / Fold change vs veh, FAM179B / RFU, BCL10 / Fold change vs veh, BCL10 / RFU, UHRF1BP1L / Fold change vs veh, UHRF1BP1L / RFU, BET1 / Fold change vs veh, BET1 / RFU, CNOT2 / Fold change vs veh, CNOT2 / RFU, ZNF268 / Fold change vs veh, ZNF268 / Fold change vs veh, ZNF507 / RFU, DGCR2 / Fold change vs veh, DGCR2 / RFU, WDSUB1 / Fold change vs veh, WDSUB1 / Fold change vs veh, HSP90B1 /// MIR3652 / RFU, ADSS / Fold change vs veh, ADSS / RFU, GK / Fold change vs veh, GK / RFU, ZNF148 / Fold change vs veh, ZNF148 / RFU, TAF9 / Fold change vs veh, TAF9 / RFU, SLC1A5 / Fold change vs veh, SLC1A5 / RFU, SLMO2 / Fold change vs veh, SLMO2 / RFU, ABCC4 / Fold change vs veh, ABCC4 / RFU, LOC101060439 /// RAP1B / Fold change vs veh, LOC101060439 /// RAP1B / RFU, RFX7 / Fold change vs veh, RFX7 / RFU, GTPBP10 / Fold change vs veh, GTPBP10 / RFU, CNEP1R1 / Fold change vs veh, CNEP1R1 / RFU, BIVM-ERCC5 /// ERCC5 / Fold change vs veh, BIVM-ERCC5 /// ERCC5 / RFU, ILF3 / Fold change vs veh, ILF3 / RFU 11762660_at / Fold change /veh 11762660_at / RFU VCAN (11757783_s_at) / Fold change /veh VCAN (11757783_s_at) / RFU DDX43 (11728927_at) / Fold change /veh DDX43 (11728927_at) / RFU KRT8 (11758188_x_at) / Fold change /veh KRT8 (11758188_x_at) / RFU NKD1 (11759106_at) / Fold change /veh NKD1 (11759106_at) / RFU SRD5A1 (11742802_a_at) / Fold change /veh SRD5A1 (11742802_a_at) / RFU TPSAB1 /// TPSB2 (11721975_s_at) / Fold change /veh TPSAB1 /// TPSB2 (11721975_s_at) / RFU GSTM3 (11746129_a_at) / Fold change /veh GSTM3 (11746129_a_at) / RFU IL23R (11737362_x_at) / Fold change /veh IL23R (11737362_x_at) / RFU TMEM51 (11727254_a_at) / Fold change /veh TMEM51 (11727254_a_at) / RFU PIWIL2 (11732686_x_at) / Fold change /veh PIWIL2 (11732686_x_at) / RFU ORM1 (11744905_x_at) / Fold change /veh ORM1 (11744905_x_at) / RFU CCDC152 (11743942_at) / Fold change /veh CCDC152 (11743942_at) / RFU ECM1 (11717891_a_at) / Fold change /veh ECM1 (11717891_a_at) / RFU IL23R (11748794_a_at) / Fold change /veh IL23R (11748794_a_at) / RFU TNFAIP8L3 (11732012_x_at) / Fold change /veh TNFAIP8L3 (11732012_x_at) / RFU MBOAT4 (11741988_at) / Fold change /veh MBOAT4 (11741988_at) / RFU 11764193_at / Fold change /veh 11764193_at / RFU TMEM53 (11763286_at) / Fold change /veh TMEM53 (11763286_at) / RFU MAGEB2 (11727129_at) / Fold change /veh MAGEB2 (11727129_at) / RFU TMEM200A (11744735_a_at) / Fold change /veh TMEM200A (11744735_a_at) / RFU CCDC152 (11751479_a_at) / Fold change /veh CCDC152 (11751479_a_at) / RFU FAM211A (11726209_a_at) / Fold change /veh FAM211A (11726209_a_at) / RFU RGS16 (11746705_a_at) / Fold change /veh RGS16 (11746705_a_at) / RFU VCAN (11755009_s_at) / Fold change /veh VCAN (11755009_s_at) / RFU RHOB (11743442_s_at) / Fold change /veh RHOB (11743442_s_at) / RFU RGS16 (11720943_a_at) / Fold change /veh RGS16 (11720943_a_at) / RFU RGS16 (11720944_at) / Fold change /veh RGS16 (11720944_at) / RFU, VPS4B / Fold change vs veh, VPS4B / RFU, CREB1 / Fold change vs veh, CREB1 / RFU, DNAJC13 / Fold change vs veh, DNAJC13 / RFU, GNAQ / Fold change vs veh, GNAQ / RFU, CDK5R1 / Fold change vs veh, CDK5R1 / RFU, ZRANB3 / Fold change vs veh, ZRANB3 / RFU, CUL4A / Fold change vs veh, CUL4A / RFU, CCNY / Fold change vs veh, CCNY / RFU, UFL1 / Fold change vs veh, UFL1 / RFU, COG3 / Fold change vs veh, COG3 / RFU, DIAPH2 / Fold change vs veh, DIAPH2 / RFU, SKA2 / Fold change vs veh, SKA2 / RFU, AFF3 / Fold change vs veh, AFF3 / RFU, LMF1 / Fold change vs veh, LMF1 / RFU, IPO11 / Fold change vs veh, IPO11 / RFU, DFFB / Fold change vs veh, DFFB / RFU, FOXP1 / Fold change vs veh, FOXP1 / RFU, CARD8 / Fold change vs veh, CARD8 / RFU, STRN3 / Fold change vs veh, STRN3 / RFU, ADK / Fold change vs veh, ADK / RFU, RASSF2 / Fold change vs veh, RASSF2 / RFU, WIPF1 / Fold change vs veh, WIPF1 / RFU, LARP1B / Fold change vs veh, LARP1B / RFU, RASA1 / Fold change vs veh, RASA1 / RFU, RB1 / Fold change vs veh, RB1 / RFU, PPFIA1 / Fold change vs veh, PPFIA1 / RFU, MAT2A / Fold change vs veh, MAT2A / RFU, CCT5 / Fold change vs veh, CCT5 / RFU, WDR92 / Fold change vs veh, WDR92 / RFU, CUX1 / Fold change vs veh, CUX1 / RFU, TTC7A / Fold change vs veh, TTC7A / RFU, TMEM135 / Fold change vs veh, TMEM135 / RFU, DEPTOR / Fold change vs veh, DEPTOR / RFU, CPM / Fold change vs veh, CPM / RFU, DNAJB6 / Fold change vs veh, DNAJB6 / RFU, CACNA2D3 / Fold change vs veh, CACNA2D3 / RFU, DTX4 / Fold change vs veh, DTX4 / RFU, TFCP2 / Fold change vs veh, TFCP2 / RFU, GMCL1 /// GMCL1P1 / Fold change vs veh, GMCL1 /// GMCL1P1 / RFU, AEBP2 / Fold change vs veh, AEBP2 / RFU, SNHG1 /// SNORD22 /// SNORD25 /// SNORD26 /// SNORD27 /// SNORD28 /// SNORD29 /// SNORD31 / Fold change vs veh, SNHG1 /// SNORD22 /// SNORD25 /// SNORD26 /// SNORD27 /// SNORD28 /// SNORD29 /// SNORD31 / Fold change (Aza/veh), C12orf56 (ProbeSet 11735607_a_at) / Fold change (ACY-1035/veh), C12orf56 (ProbeSet 11735607_a_at) / Fold change (Aza/veh), FGFR1OP (ProbeSet 11751329_s_at) / Fold change (ACY-1035/veh), FGFR1OP (ProbeSet 11751329_s_at) / Fold change (Aza/veh), VPS36 (ProbeSet 11739960_a_at) / Fold change (ACY-1035/veh), VPS36 (ProbeSet 11739960_a_at) / RFU SYPL1 (11715823_x_at) / Fold change /veh SYPL1 (11715823_x_at) / RFU IGFBP7 (11715501_s_at) / Fold change /veh IGFBP7 (11715501_s_at) / RFU REEP3 (11722064_at) / Fold change /veh REEP3 (11722064_at) / RFU IGLL1 (11728026_x_at) / Fold change /veh IGLL1 (11728026_x_at): dose or concentration left out as unconfirmed
Conditions: ProbeSet 11726661_s_at; LIST B

Nc1ncn([C@@H]2O[C@H](CO)[C@@H](O)[C@H]2O)c(=O)n1 [azacitidine]
Fold change vs veh, GPN3: 0.91
